In brackets after ≈: the same amount, converted by molar mass.
How the values were obtained:
Assay in all cases: In vitro activity, dilution method in solid medium (MIC)
Assay type in all cases: cell-based
[1] = tested on: Enterobactéries Céfotaxime résistantes; settings: 24 h, read-out: concentrations minimales inhibitrices (CMI), moyennes géométriques
Protocol: (§1) Activité in vitro, méthode des dilutions en milieu solide.
(§2) On prépare une série de boîtes dans lesquelles on répartit une même quantité de milieu nutritif stérile, contenant des quantités croissantes du produit à étudier puis chaque boîte est ensemencée avec plusieurs souches bactériennes.
(§3) Après incubation de 24 heures en étuve à 37°C, l'inhibition de la croissance est appréciée par l'absence de tout développement bactérien ce qui permet de déterminer les concentrations minimales inhibitrices (CMI) exprimées en microgrammes/cm^3.
(§4) Les résultats sont exprimés sous forme de moyennes géométriques de toutes les CMI obtenues, pour un groupe de souches particulier.

[2] = tested on: Staphylocoques Pénicilline résistants; settings: Staphylocoques Pénicilline résistants (22 souches); geometric mean of all MICs of the strain group; 24 h incubation at 37°C; read-out: concentrations minimales inhibitrices (CMI), moyennes géométriques
Protocol: as §1, §2, §3, §4

Pseudomonas aeruginosa = Pseudomonas aeruginosa (23 souches); geometric mean of all MICs of the strain group; 24 h incubation at 37°C; read-out: concentrations minimales inhibitrices (CMI), moyennes géométriques
Protocol: as §1, §2, §3, §4

| SMILES | MIC [1] [µg/mL] | MIC [2] [µg/mL] | MIC (Pseudomonas aeruginosa) [µg/mL] |
| --- | --- | --- | --- |
| Nc1nc(/C(=N/OCc2cc(F)c(O)c(O)c2F)C(=O)N[C@@H]2C(=O)N3C(C(=O)[O-])=C(/C=C/C[n+]4cccc5ccccc54)CS[C@H]23)cs1 [Exemple 4] | 0.38 (≈ 0.547 µM) | 0.37 (≈ 0.533 µM) | 0.14 (≈ 0.202 µM) |
| Nc1nc(/C(=N/OCc2cc(Cl)c(O)c(O)c2Cl)C(=O)N[C@@H]2C(=O)N3C(C(=O)[O-])=C(/C=C/C[n+]4ccn5ccccc54)CS[C@H]23)cs1 [Exemple 2] | 0.19 (≈ 0.265 µM) | 0.91 (≈ 1.27 µM) | 0.42 (≈ 0.586 µM) |
| Nc1nc(/C(=N/OCc2cc(O)c(O)c(F)c2)C(=O)N[C@@H]2C(=O)N3C(C(=O)[O-])=C(/C=C/C[n+]4cccc5ccccc54)CS[C@H]23)cs1 [Exemple 7] | 0.2 (≈ 0.296 µM) | 0.3 (≈ 0.443 µM) | 0.47 (≈ 0.695 µM) |
| COC(=O)C(O/N=C(\C(=O)N[C@@H]1C(=O)N2C(C(=O)[O-])=C(/C=C/C[n+]3cccc4ccccc43)CS[C@H]12)c1csc(N)n1)c1cc(O)c(O)c(F)c1 (stereo partly drawn) [Exemple 8] |  | 0.3 (≈ 0.408 µM) | 0.49 (≈ 0.667 µM) |
| Nc1nc(/C(=N/OCc2cc(F)c(O)c(O)c2F)C(=O)N[C@@H]2C(=O)N3C(C(=O)[O-])=C(/C=C/C[n+]4ccn5ccccc54)CS[C@H]23)cs1 [Exemple 5] | 0.26 (≈ 0.38 µM) | 0.55 (≈ 0.804 µM) |  |
| Nc1nc(/C(=N/OCc2cc(Cl)c(O)c(O)c2Cl)C(=O)N[C@@H]2C(=O)N3C(C(=O)[O-])=C(/C=C/C[n+]4cccc5ccccc54)CS[C@H]23)cs1 [Exemple 1] | 0.11 (≈ 0.151 µM) | 0.78 (≈ 1.07 µM) |  |
| Nc1nc(/C(=N/OCc2cc(Cl)c(O)c(O)c2Cl)C(=O)N[C@@H]2C(=O)N3C(C(=O)[O-])=C(/C=C/C[n+]4cccc5c4CCC5)CS[C@H]23)cs1 [Exemple 3] | 0.13 (≈ 0.181 µM) | 1.37 (≈ 1.91 µM) | 0.26 (≈ 0.362 µM) |
| Nc1nc(/C(=N/OCc2cc(F)c(O)c(O)c2F)C(=O)N[C@@H]2C(=O)N3C(C(=O)[O-])=C(/C=C/C[n+]4cccc5c4CCC5)CS[C@H]23)cs1 [Exemple 6] | 0.36 (≈ 0.526 µM) | 0.63 (≈ 0.92 µM) | 1.12 (≈ 1.64 µM) |

Reference: patent EP0761672A1, “Cephalosporin containing in position 7 a substituted benzyloxyimino radical, processes for their preparation and intermediates for their preparation, their use as medicaments” (ROUSSEL UCLAF, priority 1995, dated 1997)
